Here are results for one compound from US20050106276A1, “Pharmaceutical composition made from Chinese traditional medecine and method of producing thereof” (Jiangsu Kanion Pharmaceutial Co. Ltd., priority 2001, published 2005).

Assay [1] relates to experimental mice with hyperglycaemia. As to the kind of experiment: blood glucose value of mice with hyperglycaemia lead by Streptozocin. It is filed as in vivo, mouse. The conditions noted are these: Streptozocin mice serum. As to the method: 100 male mice, weighting 25˜30 g, were given Streptozocin on the dosage of 180 mg/kg by intraperitoneal injection. taking blood from eye sockets of the survivals 72 hours later, using evaluate kit evaluated serum glucose, select 40 mice with hyperglycosemia whose serum glucose value is 18˜33 mmol/L, Which were randomly divided into 4 groups: Model group, Positive medicine Phenformin group, High and low dose of invented capsule group. All mice were intragastric administration 1 time each day in 10 days; Take another 10 mice as normal control group. All mice were fasting diet 12 hours after last administration, then taking blood from eye sockets, separating blood serum, using evaluate kit evaluated serum glucose value with Glucose enzymic method, then using t-value method to compare the significance with model group.

Assay [2] concerns experimental rats with hyperglycaemia. As to the kind of experiment: blood glucose value of rats with hyperglycaemia lead by alloxan. The assay is classed as in vivo, rat. As to conditions: alloxan rats serum. As to the method: 160 male rats, weighting 200˜250 g, were given alloxan on the dosage of 200 mg/kg by intraperitoneal injection. taking blood from eye sockets of the survivals 72 hours later, using evaluate kit evaluated serum glucose, select 40 rats with hyperglycosemia whose serum glucose value is 20˜25 mmol/L, Which were randomly divided into 4 groups: Model group, Positive medicine Phenformin group, High and low dose of invented capsule group. All rats were intragastric administration 1 time each day in 10 days; Take another 10 mice as normal control group. All mice were fasting diet 12 hours after last administration, then taking blood from eye sockets, separating blood serum, using evaluate kit evaluated serum glucose value with Glucose enzymic method, then using t-value method to compare the significance with model group.

Where [3] appears, read: 0.1 g/kg intragastric daily 10 days.

Structures can show the parent of a compound that is named as a salt.

For `[H]/N=C(/N)N/C(=N/[H])NCCc1ccccc1` [Phenformin, Phenformin Hydrochloride], the “GLU After administration” value in assay [1] (setting [3]) was found to be 12.51 ± 6.93 mmol/L; in assay [2] (setting [3]), 14.52 ± 4.99 mmol/L. For the same compound, the “GLU Before administration” value is given as 25.43 ± 3.93 mmol/L in assay [1] (baseline of 0.1 g/kg group) and 22.72 ± 1.53 mmol/L in assay [2] (baseline of 0.1 g/kg group).
